The values below come from PubChem BioAssay AID342 (DTP/NCI, 2004).

The test system of the test is Swiss mice, Sarcoma 180 sc, mean tumor weight T/C. As to the kind of experiment: NCI In Vivo Anticancer Drug Screen. Data for tumor model Sarcoma 180 (subcutaneous) in Swiss mice. Conditions: endpoint: mean tumor weight, higher = larger tumour. The essentials: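 T/C ratio: treated over vehicle-treated controls, measuring survival or tumor size in transplanted-tumor mice.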

Setting [1] is: dose: 3.6 mg/kg/injection, schedule: Q01DX007 (ip), vehicle: carboxymethylcellulose (CMC).
Where [2] appears, read: dose: 31.0 mg/kg/injection, schedule: Q01DX007 (ip), vehicle: other.

Each structure is given as a SMILES string. “And” between values parts separate entries of the source, which are not always exact repeats. Equal values may be shown once. Square brackets hold non-standard residues; d marks the D form. Peptide text beside a SMILES is read from it. Ac5c = NC1(C(=O)O)CCCC1

`NC(Cc1ccc(N(CCCl)CCCl)cc1)C(=O)O` (stereo not drawn): the T/C (dose: 0.45 mg/kg/injection, schedule: Q#A X014 (ip), vehicle: carboxymethylcellulose (CMC)) is 68 % of control; the T/C (dose: 0.62 mg/kg/injection, schedule: Q#A X014 (ip), vehicle: carboxymethylcellulose (CMC)) was 83 % of control; the T/C (dose: 0.81 mg/kg/injection, schedule: Q01DX007 (ip), vehicle: carboxymethylcellulose (CMC)) was 81 % of control; the T/C (dose: 0.9 mg/kg/injection, schedule: Q#A X014 (ip), vehicle: carboxymethylcellulose (CMC)) was 74 % of control; the T/C (dose: 1.0 mg/kg/injection, schedule: Q#A X014 (ip), vehicle: methylcellulose (MC)) is 80 % of control; the T/C (dose: 1.08 mg/kg/injection, schedule: Q#A X014 (ip), vehicle: carboxymethylcellulose (CMC)) is 76 % of control. Moreover, the T/C is, setting by setting: (dose: 1.25 mg/kg/injection, schedule: Q#A X014 (ip), vehicle: carboxymethylcellulose (CMC)) 78 % of control; (dose: 1.62 mg/kg/injection, schedule: Q01DX007 (ip), vehicle: carboxymethylcellulose (CMC)) 78 % of control; (dose: 1.62 mg/kg/injection, schedule: Q#A X014 (ip), vehicle: carboxymethylcellulose (CMC)) 78 % of control; (dose: 1.8 mg/kg/injection, schedule: Q#A X014 (ip), vehicle: carboxymethylcellulose (CMC)) 60 % of control; (dose: 2.0 mg/kg/injection, schedule: Q#A X014 (ip), vehicle: methylcellulose (MC)) 59 % of control; (dose: 2.16 mg/kg/injection, schedule: Q#A X014 (ip), vehicle: carboxymethylcellulose (CMC)) 51 % of control. Also, the T/C is 47 % of control (dose: 2.5 mg/kg/injection, schedule: Q#A X014 (ip), vehicle: carboxymethylcellulose (CMC)); 95 % of control (dose: 2.88 mg/kg/injection, schedule: Q01DX007 (ip), vehicle: carboxymethylcellulose (CMC)); 32 % of control (dose: 3.25 mg/kg/injection, schedule: Q01DX007 (ip), vehicle: carboxymethylcellulose (CMC)); 34 % of control (dose: 3.25 mg/kg/injection, schedule: Q#A X014 (ip), vehicle: carboxymethylcellulose (CMC)); 62 % of control under setting [1]; 31 % of control (dose: 3.6 mg/kg/injection, schedule: Q#A X014 (ip), vehicle: carboxymethylcellulose (CMC)). Also, the T/C runs as follows: (dose: 4.0 mg/kg/injection, schedule: Q#A X014 (ip), vehicle: methylcellulose (MC)) 47 % of control; (dose: 4.8 mg/kg/injection, schedule: Q01DX007 (ip), vehicle: carboxymethylcellulose (CMC)) 42 % of control; (dose: 5.0 mg/kg/injection, schedule: Q#A X014 (ip), vehicle: carboxymethylcellulose (CMC)) 7 % of control; (dose: 7.2 mg/kg/injection, schedule: Q01DX007 (ip), vehicle: carboxymethylcellulose (CMC)) 20 % of control; (dose: 8.0 mg/kg/injection, schedule: Q#A X014 (ip), vehicle: methylcellulose (MC)) 14 % of control.

As for `CN(/N=N/c1nc[nH]c1C(N)=O)c1ccccc1`, the T/C by setting is: (dose: 15.5 mg/kg/injection, schedule: Q#A X014 (ip), vehicle: methylcellulose (MC)) 89 % of control; (dose: 31.0 mg/kg/injection, schedule: Q#A X014 (ip), vehicle: methylcellulose (MC)) 99 % of control; (dose: 62.5 mg/kg/injection, schedule: Q#A X014 (ip), vehicle: methylcellulose (MC)) 46 % of control.

For `C(=N\N(c1ccccc1)c1ccccc1)/C(=C/c1ccccc1)c1ccccc1`, the T/C runs as follows: (dose: 125.0 mg/kg/injection, schedule: Q01DX007 (ip), vehicle: carboxymethylcellulose (CMC)) 85 % of control; (dose: 250.0 mg/kg/injection, schedule: Q01DX007 (ip), vehicle: carboxymethylcellulose (CMC)) 92 % of control; (dose: 500.0 mg/kg/injection, schedule: Q01DX007 (ip), vehicle: carboxymethylcellulose (CMC)) 102 % of control.

As for `NC1=CC(=O)c2ccccc2C1=O`, the T/C under setting [2] is 73 % of control and the T/C (dose: 62.0 mg/kg/injection, schedule: Q01DX007 (ip), vehicle: other) was 83 % of control.

As for `c1cncc(CSc2ncnc3nc[nH]c23)c1`, the T/C by setting is: (dose: 11.1 mg/kg/injection, schedule: Q#A X014 (ip), vehicle: methylcellulose (MC)) 53 % of control; (dose: 16.65 mg/kg/injection, schedule: Q#A X014 (ip), vehicle: methylcellulose (MC)) 60 % of control; (dose: 25.0 mg/kg/injection, schedule: Q#A X014 (ip), vehicle: methylcellulose (MC)) 70 % of control; (dose: 37.5 mg/kg/injection, schedule: Q#A X014 (ip), vehicle: methylcellulose (MC)) 47 % of control.

With `c1ccc(N2N=C3N(c4ccccc4)C2N3c2ccccc2)cc1`, the T/C is, setting by setting: (dose: 15.0 mg/kg/injection, schedule: Q01DX007 (ip), vehicle: other) 114 % of control; under setting [2], 72 % of control.

As to `CCCCOCN1CCCCC1`, the T/C (dose: 50.0 mg/kg/injection, schedule: Q01DX007 (ip), vehicle: carboxymethylcellulose (CMC)) is 64 % of control and the T/C (dose: 100.0 mg/kg/injection, schedule: Q01DX007 (ip), vehicle: carboxymethylcellulose (CMC)) is 123 % of control.

Consider `CC(=O)OC/N=[N+](/C)[O-]`, for which the T/C reads like this: (dose: 4.68 mg/kg/injection, schedule: Q01DX007 (ip), vehicle: saline) 84 % of control; (dose: 9.37 mg/kg/injection, schedule: Q01DX007 (ip), vehicle: saline) 54 % of control.

For the molecule `S=C(N=Nc1ccccc1)NNc1ccccc1`, the T/C is 110 % of control (dose: 37.5 mg/kg/injection, schedule: Q01DX007 (ip), vehicle: carboxymethylcellulose (CMC)) and 47 % of control (dose: 75.0 mg/kg/injection, schedule: Q01DX007 (ip), vehicle: carboxymethylcellulose (CMC)).

As to `CNC(=O)NO`, the T/C is 100 % of control (dose: 50.0 mg/kg/injection, schedule: Q01DX007 (ip), vehicle: water); 109 % of control (dose: 100.0 mg/kg/injection, schedule: Q01DX007 (ip), vehicle: water); 95 % of control (dose: 200.0 mg/kg/injection, schedule: Q01DX007 (ip), vehicle: water); 60 % of control (dose: 400.0 mg/kg/injection, schedule: Q01DX007 (ip), vehicle: water).

Consider `NC1C(O)C(O)C(Nc2ncnc3nc[nH]c23)OC1C(O)CO` (stereo not drawn), for which the T/C reads like this: (dose: 0.44 mg/kg/injection, schedule: Q## X000 (ip), vehicle: carboxymethylcellulose (CMC)) 100 % of control; (dose: 0.66 mg/kg/injection, schedule: Q## X000 (ip), vehicle: carboxymethylcellulose (CMC)) 66 % of control; (dose: 1.0 mg/kg/injection, schedule: Q## X000 (ip), vehicle: carboxymethylcellulose (CMC)) 82 % of control; (dose: 1.5 mg/kg/injection, schedule: Q## X000 (ip), vehicle: carboxymethylcellulose (CMC)) 72 % of control.

`CC(=O)OCC1=CC2OC(=O)C3=COC(OC4OC(CO)C(O)C(O)C4O)C1C32` (stereo not drawn): under “dose: 220.0 mg/kg/injection, schedule: Q01DX007 (ip), vehicle: carboxymethylcellulose (CMC)”, the T/C is 67 % of control.

For the molecule `Clc1ccc(C[P+](c2ccccc2)(c2ccccc2)c2ccccc2)cc1Cl`, the T/C by setting is: under setting [1], 66 % of control and 69 % of control; (dose: 5.3 mg/kg/injection, schedule: Q01DX007 (ip), vehicle: carboxymethylcellulose (CMC)) 63 % of control and 71 % of control; (dose: 8.0 mg/kg/injection, schedule: Q01DX007 (ip), vehicle: carboxymethylcellulose (CMC)) 46 % of control.

As for `O=[N+]([O-])c1ccc(O)c([N+](=O)[O-])c1`, the T/C was 69 % of control (dose: 1325.0 micrograms/kg/injection, schedule: Q01DX007 (ip), vehicle: carboxymethylcellulose (CMC)); 96 % of control (dose: 2650.0 micrograms/kg/injection, schedule: Q01DX007 (ip), vehicle: carboxymethylcellulose (CMC)); 71 % of control (dose: 4300.0 micrograms/kg/injection, schedule: Q01DX007 (ip), vehicle: carboxymethylcellulose (CMC)); 79 % of control (dose: 6625.0 micrograms/kg/injection, schedule: Q01DX007 (ip), vehicle: carboxymethylcellulose (CMC)).

As for `NCC(=O)NC1(C(=O)O)CCCC1` (H-Gly-[Ac5c]-OH), the T/C is 57 % of control (dose: 66.0 mg/kg/injection, schedule: Q01DX007 (ip), vehicle: saline); 103 % of control (dose: 100.0 mg/kg/injection, schedule: Q01DX007 (ip), vehicle: saline); 45 % of control (dose: 150.0 mg/kg/injection, schedule: Q01DX007 (ip), vehicle: saline); 47 % of control (dose: 225.0 mg/kg/injection, schedule: Q01DX007 (ip), vehicle: saline).

In general, T/C refers to the result in the treated group divided by that in the control group, in per cent.
